Where two headings read alike, the source gives them in different places.
Assays:
[1] = test system: transformed human keratinocyte cell line (FEP 1811); experiment: Clonogenic survival cell culture assay for cytotoxicity; type: cell-based; conditions: un-irradiated keratinocytes, one hour drug exposure, colonies counted after eight days, read-out: C50 (concentration of radioprotector that results in 50% clonogenic survival)
Protocol: • i. […] In appropriate cases, tautomers are drawn to illustrate potential hydrogen-bond donating configurations into the minor groove of DNA. • ii. 2-Amino-4-(5′-(4″-methylpiperazin-1″-yl)benzimidazol-2′-yl)aniline was prepared by hydrogenation of 4-(5′-(4″-methylpiperazin-1″-yl)benzimidazol-2′-yl)-2-nitroaniline, using a modification of the method of Kelly et al, Aust. […] 2-Amino-4-(5′-(piperidin-1″-yl)benzimidazol-2′-yl)aniline was prepared by hydrogenation of 2-nitro-4-(5′-(piperidin-1″-yl)benzimidazol-2′-yl)aniline, using a modification of the method of Kelly et al, Aust. […] Ethyl 4-amino-3-nitrobenzenecarboximidate hydrochloride was prepared by reaction of 4-amino-3-nitrobenzonitrile with dry HCl gas in ethanol, using the method of Kelly et al, Aust. […] 5-(4′-Methylpiperazin-1′-yl)-2-nitroaniline was prepared using a modification of the method of Kelly et al, Aust. […] The following chemicals were obtained from the chemical suppliers indicated: 2-furaldehyde (Aldrich), 2-pyridinecarboxaldehyde (Aldrich), 3-fluoropyridine-2-carbaldehyde (Maybridge), 3-trifluoromethylpyridine-2-carboxaldehyde (Apollo Scientific), 6-methyl-2-pyridinecarboxaldehyde (Matrix Scientific), 5-methylpyridine-2-carbonitrile (Apollo Scientific), 4-methyl-2-pyridinecarbonitrile (Aldrich), 4-chloro-2-pyridinecarbonitrile (Aldrich), 4-methoxypicolinonitrile (Combi-Blocks), pyrazinecarbonitrile (Aldrich), 2-quinolinecarbonitrile (Aldrich), 3-isoquinolinecarbonitrile (Aldrich), 1-isoquinolinecarboxylic acid (Aldrich), indazole-3-carboxylic acid (Aldrich), 2-hydroxynicotinic acid (Aldrich), 4-hydroxypiperidine (Aldrich), 1-methylhomopiperazine (Aldrich), 3-hydroxypiperidine (Aldrich), 4-(N-BOC-amino)piperidine (Aldrich), 4-methoxypiperidine (Acros), 4-methyl-3-nitrobenzonitrile (Aldrich), 5-chloro-2-nitroaniline (Aldrich), 2-cyanopyridine (Aldrich), methyl 4-amino-2-methoxybenzoic acid (Aldrich), 4-(trifluoromethyl)-2-pyridinecarbonitrile (Matrix Scientific), cis-2,6-dimethylmorphoiline (Acros), 5-(trifluoromethyl)-2-pyridinecarbonitrile (Advanced Chemical Intermediates) and 5-fluoro-2-pyridinecarbonitrile (Advanced Chemical Intermediates). • ix. […] Melting points were determined using an Electrothermal melting point apparatus, and are uncorrected. […] The abbreviations s for singlet, d for doublet, t for triplet, q for quartet, br for broad and m for muitiplet were used in the assignments of multiplicity. A value approximating the centre of a multiplet is quoted. […] The addition of a few drops of acetic acid to methanol-d4 solutions was used to enhance solubility for the acquisition of ^13C nmr spectra. Mass spectra were recorded on a Micromass Quattro II mass spectrometer and accurate mass analyses were carried out by the School of Chemistry at the University of Melbourne on a Finnigan LTQ-FT model high resolution mass spectrometer. Thin layer chromatography (TLC) was carried out using Merck silica gel 60 F254 aluminium sheets or Merck neutral aluminium oxide 150 F254 sheets. Flash column chromatography was carried out using Ajax silica gel 230-400 mesh. • xi. […] The details are described in detail in Martin et al (4) (the disclosure of which is included herein in its entirety by way of reference), but briefly, mid-log phase monolayer cultures are incubated with various concentrations of the test drugs for one hour, after which the monolayers are washed and dispersed into single cell suspensions using pronase, and finally appropriate numbers of cells are dispensed into Petri dishes. Colonies are counted after eight days incubation. […] The irradiation (with a dose rate of 0.6 Gy per minute) is started 30 minutes after addition of the test drug. After completion of irradiation, incubation of cultures is continued until the total time of exposure to the drug reaches 60 minutes. Cultures are then washed and plated for clonogenic survival as described for the cytotoxicity experiments.

[2] = test system: transformed human keratinocyte cell line (FEP 1811); experiment: Clonogenic survival cell culture assay for radioprotective activity (12 Gy 137Cs gamma irradiation); type: cell-based
From the text: PF is defined as a ratio of survival at maximum protection Sm and survival after irradiation only So: PF=Sm/So. DMF is defined as a ratio of doses that result in survival level of Sm in the presence Dp and the absence Dc of radioprotector: DMF=Dp/Dc. DMF10 is define in a similar way except that instead of Sm a survival at 10 microM of radioprotector is used.
PF (Protection Factor) is defined as a ratio of survival at maximum protection Sm and survival after irradiation only So:PF=Sm/So. DMF (Dose Modification Factor) is defined as a ratio of doses that result in survival level of Sm in the presence (Dp) and the absence (Dc) of radioprotector: DMF=Dp/Dc. DMF10 is defined in a similar way except that instead of Sm a survival at 10 microM of radioprotector is used.
• i. […] In appropriate cases, tautomers are drawn to illustrate potential hydrogen-bond donating configurations into the minor groove of DNA. • ii. 2-Amino-4-(5′-(4″-methylpiperazin-1″-yl)benzimidazol-2′-yl)aniline was prepared by hydrogenation of 4-(5′-(4″-methylpiperazin-1″-yl)benzimidazol-2′-yl)-2-nitroaniline, using a modification of the method of Kelly et al, Aust. […] 2-Amino-4-(5′-(piperidin-1″-yl)benzimidazol-2′-yl)aniline was prepared by hydrogenation of 2-nitro-4-(5′-(piperidin-1″-yl)benzimidazol-2′-yl)aniline, using a modification of the method of Kelly et al, Aust. […] Ethyl 4-amino-3-nitrobenzenecarboximidate hydrochloride was prepared by reaction of 4-amino-3-nitrobenzonitrile with dry HCl gas in ethanol, using the method of Kelly et al, Aust. […] 5-(4′-Methylpiperazin-1′-yl)-2-nitroaniline was prepared using a modification of the method of Kelly et al, Aust. […] The following chemicals were obtained from the chemical suppliers indicated: 2-furaldehyde (Aldrich), 2-pyridinecarboxaldehyde (Aldrich), 3-fluoropyridine-2-carbaldehyde (Maybridge), 3-trifluoromethylpyridine-2-carboxaldehyde (Apollo Scientific), 6-methyl-2-pyridinecarboxaldehyde (Matrix Scientific), 5-methylpyridine-2-carbonitrile (Apollo Scientific), 4-methyl-2-pyridinecarbonitrile (Aldrich), 4-chloro-2-pyridinecarbonitrile (Aldrich), 4-methoxypicolinonitrile (Combi-Blocks), pyrazinecarbonitrile (Aldrich), 2-quinolinecarbonitrile (Aldrich), 3-isoquinolinecarbonitrile (Aldrich), 1-isoquinolinecarboxylic acid (Aldrich), indazole-3-carboxylic acid (Aldrich), 2-hydroxynicotinic acid (Aldrich), 4-hydroxypiperidine (Aldrich), 1-methylhomopiperazine (Aldrich), 3-hydroxypiperidine (Aldrich), 4-(N-BOC-amino)piperidine (Aldrich), 4-methoxypiperidine (Acros), 4-methyl-3-nitrobenzonitrile (Aldrich), 5-chloro-2-nitroaniline (Aldrich), 2-cyanopyridine (Aldrich), methyl 4-amino-2-methoxybenzoic acid (Aldrich), 4-(trifluoromethyl)-2-pyridinecarbonitrile (Matrix Scientific), cis-2,6-dimethylmorphoiline (Acros), 5-(trifluoromethyl)-2-pyridinecarbonitrile (Advanced Chemical Intermediates) and 5-fluoro-2-pyridinecarbonitrile (Advanced Chemical Intermediates). • ix. […] Melting points were determined using an Electrothermal melting point apparatus, and are uncorrected. […] The abbreviations s for singlet, d for doublet, t for triplet, q for quartet, br for broad and m for muitiplet were used in the assignments of multiplicity. A value approximating the centre of a multiplet is quoted. […] The addition of a few drops of acetic acid to methanol-d4 solutions was used to enhance solubility for the acquisition of ^13C nmr spectra. Mass spectra were recorded on a Micromass Quattro II mass spectrometer and accurate mass analyses were carried out by the School of Chemistry at the University of Melbourne on a Finnigan LTQ-FT model high resolution mass spectrometer. Thin layer chromatography (TLC) was carried out using Merck silica gel 60 F254 aluminium sheets or Merck neutral aluminium oxide 150 F254 sheets. Flash column chromatography was carried out using Ajax silica gel 230-400 mesh. • xi.

[3] = 12 Gy, 10 microM radioprotector
[4] = 12 Gy, DMF=Dp/Dc at survival level Sm
[5] = 12 Gy, survival at maximum protection vs irradiation only
[6] = Homo sapiens, Keratinocyte, light or radiation study

Row | Compound | IC50 [1] | DMF10 (dose modification factor at a concentration of 10 microM of radioprotector) [2] | DMFm (dose modification factor at maximum protection) [2] | PF (protection factor = Sm/So) [2] | DMF10 (dose modification factor at a concentration of 10 microM of radioprotector) [2, 3] | DMFm (dose modification factor at maximum protection) [2, 4] | PF (protection factor = Sm/So) [2, 5] | IC50 [1, 6]
1 | 2-(5′-(5″-(2′″-(dimethylamino)ethoxy)benzimidazol-2″-yl)benzimidazol-2′-yl)pyridine [Example 44] | 146 µM | 1.50 | 1.88 | 17.6 |  |  |  | 
2 | 2-(5′-(5″-(4′″-methylpiperazin-1′″-yl)-1H-indol-2″-yl)benzimidazol-2′-yl)pyridine [Example 53] | 34.1 µM |  |  |  | 1.21 | 1.30 | 4.9 | 
3 | Cc1cccc(-c2nc3ccc(-c4nc5ccc(N6CCN(C)CC6)cc5[nH]4)cc3[nH]2)n1 [Example 5, 6-Methyl-2-(5′-(5″-(4′″-methylpiperazin-1′″-yl)benzimidazol-2″-yl)benzimidazol-2′-yl)pyridine] |  |  |  |  | 1.12 | 1.22 | 2.5 | 73.3 µM
4 | CN1CCN(c2ccc3[nH]c(-c4ccc5[nH]c(-c6ccc7ccccc7n6)nc5c4)nc3c2)CC1 [Example 13, 2-(5′-(5″-(4′″-Methylpiperazin-1′″-yl)benzimidazol-2″-yl)benzimidazol-2′-yl)quinoline] | 14 µM |  |  |  | 1.65 | 1.66 | 11.0 | 
5 | CN1CCN(c2ccc3[nH]c(-c4ccc5[nH]c(-c6nn(C)c7ccccc67)nc5c4)nc3c2)CC1 [Example 17, 1-methyl-3-(5′-(5″-(4′″-methylpiperazin-1′″-yl)benzimidazol-2″-yl)benzimidazol-2′-yl)indazole] | 76.5 µM |  |  |  | 1.27 | 1.68 | 10.9 | 
6 | CCCCN1CCN(c2ccc3nc(-c4ccc5nc(-c6ccccn6)[nH]c5c4)[nH]c3c2)CC1 [Example 34, 2-(5′-(5″-(4′″-Butylpiperazin-1′″-yl)benzimidazol-2″-yl)benzimidazol-2′-yl)pyridine] |  |  |  |  | 2.05 | 2.27 | 27.6 | 47 µM
7 | COCCNc1ccc2[nH]c(-c3ccc4nc(-c5ccccn5)[nH]c4c3)nc2c1 [Example 35, 2-(5′-(5″-(2′″-methoxyethylamino)benzimidazol-2″-yl)benzimidazol-2′-yl)pyridine] |  |  |  |  | 1.66 | 2.19 | 21.9 | 126 µM
8 | c1ccc(-c2nc3ccc(-c4nc5ccc(N6CCSCC6)cc5[nH]4)cc3[nH]2)nc1 [Example 36, 2-(5′-(5″-thiomorpholinobenzimidazol-2″-yl)benzimidazol-2′-yl)pyridine] |  |  |  |  | 1.49 | 1.53 | 16.4 | 31.3 µM
9 | CN(C)C(=O)N1CCN(c2ccc3[nH]c(-c4ccc5[nH]c(-c6ccccn6)nc5c4)nc3c2)CC1 [Example 37, 2-(5′-(5″-(4′″-(dimethylcarbamoyl)piperazin-1 ′″-yl)benzimidazol-2″-yl)benzimidazol-2′-yl)pyridine] | 120 µM |  |  |  | 1.49 | 1.82 | 34.6 | 
10 | COCCN1CCN(c2ccc3nc(-c4ccc5nc(-c6ccccn6)[nH]c5c4)[nH]c3c2)CC1 [Example 40, 2-(5′-(5″-(4′″-(2″″-methoxyethyl)piperazin-1′″-yl)benzimidazol-2″-yl)benzimidazol-2′-yl)pyridine] |  |  |  |  | 1.77 | 198 | 20.2 | 80.7 µM
11 | CN(C)CCNc1ccc2[nH]c(-c3ccc4[nH]c(-c5ccccn5)nc4c3)nc2c1 [Example 43, 2-(5′-(5″-(2′″-(dimethylamino)ethylamino)benzimidazol-2″-yl)benzimidazol-2′-yl)pyridine] | 118 µM |  |  |  | 1.28 | 1.61 | 11.2 | 
12 | CN(C)Nc1ccc2[nH]c(-c3ccc4[nH]c(-c5ccccn5)nc4c3)nc2c1 [Example 46, 2-(5′-(5″-(2′″,2′″-dimethylhydrazinyl)benzimidazol-2″-yl)benzimidazol-2′-yl)pyridine] |  |  |  |  | 1.29 | 1.71 | 27.9 | 74.6 µM

— USRE46943E1, “Radioprotector compounds and methods” (PETER MACCALLUM CANCER INSTITUTE, priority 2010, dated 2018)
